Reference: ChEMBL document CHEMBL5523716, “Discovery of novel EGFR-PROTACs capable of degradation of multiple EGFR-mutated proteins” (Eur J Med Chem, 2024)
The source made the active and inactive calls. The rule behind the calls is not given here.

Key:
HCC827 [1] = test: Antitumor activity against human HCC827 cells xenografted in BALB/c mouse assessed as tumor growth inhibition at 2.5 mg/kg,ip once daily for 28 days relative to control; type: functional; conditions: HCC827, 672 h, time 28 day, read-out: TGI
[2] = MRT (0 to infinity) in SPF ICR mouse at 2 mg/kg,iv measured upto 24 hrs by LC-MS/MS analysis; type: ADME, organism-based; conditions: in vivo
[3] = tested on: von Hippel-Lindau disease tumor suppressor/Epidermal growth factor receptor (Homo sapiens), P00533+P40337 [UNDEFINED MUTATION]; test: PROTAC activity at VHL/EGFR Del19 mutant in human HCC827 cells assessed as induction of EGFR degradation at 100 nM preincubated with MLN-4924 for 6 hrs followed by compound treatment for 48 hrs by Western blot analysis; type: cell-based
[4] = Metabolic stability in mouse liver microsomes assessed as half-life at 1 uM incubated upto 60 mins in presence of NADPH by LC-MS/MS analysis; type: ADME, Microsome
H1975-TM = test: Antitumor activity against human H1975-TM cells xenografted in BALB/c mouse assessed as downregulation of EGFR phosphorylation in tumor at 5 to 20 mg/kg,ip once daily for 14 days by Western blot analysis; type: functional, organism-based; conditions: dose 5-20 mg/kg, time 14.0 day
[5] = Toxicity in BALB/c mouse xenografted with human H1975-TM cells assessed as change in body weight at 5 to 20 mg/kg,ip once daily for 14 days; type: organism-based; conditions: in vivo, 336 h, dose 5-20 mg/kg, time 14 day
[6] = tested on: von Hippel-Lindau disease tumor suppressor/Epidermal growth factor receptor (Homo sapiens), P00533+P40337 [L858R,T790M,C797S]; test: PROTAC activity at VHL/EGFR L858R/T790M/C797S mutant in human H1975-TM cells assessed as maximal EGFR degradation at 0.03 to 2.5 uM incubated for 48 hrs by Western blot analysis relative to control; type: cell-based; conditions: dose 0.03-2.5 µM
[7] = AUC (0 to t) in SPF ICR mouse at 5 mg/kg,ip measured upto 24 hrs by LC-MS/MS analysis; type: ADME, organism-based; conditions: in vivo
[8] = Half life in SPF ICR mouse at 5 mg/kg,ip measured upto 24 hrs by LC-MS/MS analysis; type: ADME, organism-based; conditions: in vivo
[9] = AUC (0 to t) in SPF ICR mouse at 2 mg/kg,iv measured upto 24 hrs by LC-MS/MS analysis; type: ADME, organism-based; conditions: in vivo
[10] = Antitumor activity against human H1975-TM cells xenografted in BALB/c mouse assessed as tumor growth inhibition at 10 mg/kg,ip once daily for 14 days relative to control; type: functional; conditions: 336 h, time 14 day, read-out: TGI
[11] = tested on: von Hippel-Lindau disease tumor suppressor/Epidermal growth factor receptor (Homo sapiens), P00533+P40337 [L858R,T790M]; test: PROTAC activity at VHL/EGFR L858R/T790M mutant in human NCI-H1975 cells assessed as downregulation of ERK phosphorylation incubated for 72 hrs by Western blot analysis; type: cell-based
NCI-H1975 [12] = test: Antitumor activity against human NCI-H1975 cells xenografted in BALB/c mouse assessed as increase in EGFR degradation in tumor at 20 mg/kg,ip once daily for 22 days by Western blot analysis relative to control; type: functional; conditions: time 22 day
[13] = Metabolic stability in dog liver microsomes assessed as intrinsic clearance at 1 uM incubated upto 60 mins in presence of NADPH by LC-MS/MS analysis; type: ADME, Canis lupus familiaris, Microsome; conditions: read-out: CLH
A549 = test: Antiproliferative activity against human A549 cells harboring EGFR wild type assessed as inhibition of cell growth incubated for 48 to 72 hrs by CCK-8 assay; type: functional, cell-based
[14] = tested on: von Hippel-Lindau disease tumor suppressor/Epidermal growth factor receptor (Homo sapiens), P00533+P40337 [L858R,T790M]; test: PROTAC activity at VHL/EGFR L858R/T790M mutant in human NCI-H1975 cells assessed as downregulation of AKT phosphorylation incubated for 72 hrs by Western blot analysis; type: cell-based
[15] = AUC (0 to infinity) in SPF ICR mouse at 2 mg/kg,iv measured upto 24 hrs by LC-MS/MS analysis; type: ADME, organism-based; conditions: in vivo
[16] = tested on: von Hippel-Lindau disease tumor suppressor/Epidermal growth factor receptor (Homo sapiens), P00533+P40337 [L858R,T790M]; test: PROTAC activity at VHL/EGFR L858R/T790M mutant in human NCI-H1975 cells assessed as induction of EGFR degradation at 100 nM preincubated with MG-132 for 6 hrs followed by compound treatment for 48 hrs by Western blot analysis; type: cell-based
[17] = Antitumor activity against human H1975-TM cells xenografted in BALB/c mouse assessed as tumor growth inhibition at 5 mg/kg,ip once daily for 14 days relative to control; type: functional; conditions: 336 h, time 14 day, read-out: TGI
[18] = tested on: von Hippel-Lindau disease tumor suppressor/Epidermal growth factor receptor (Homo sapiens), P00533+P40337 [UNDEFINED MUTATION]; test: PROTAC activity at VHL/EGFR Del19 mutant in human HCC827 cells assessed as maximal EGFR degradation at 1.56 to 100 nM incubated for 72 hrs by Western blot analysis relative to control; type: cell-based; conditions: dose 1.56-100 nM
[19] = Cmax in SPF ICR mouse at 2 mg/kg,iv measured upto 24 hrs by LC-MS/MS analysis; type: ADME, organism-based; conditions: in vivo
NCI-H1975 [20] = test: Antitumor activity against human NCI-H1975 cells xenografted in BALB/c mouse assessed as tumor growth inhibition at 20 mg/kg,ip once daily for 22 days relative to control; type: functional; conditions: NCI-H1975, 528 h, time 22 day, read-out: TGI
[21] = tested on: von Hippel-Lindau disease tumor suppressor/Epidermal growth factor receptor (Homo sapiens), P00533+P40337 [L858R,T790M]; test: PROTAC activity at VHL/EGFR L858R/T790M mutant in human NCI-H1975 cells assessed as downregulation of EGFR phosphorylation incubated for 72 hrs by Western blot analysis; type: cell-based
[22] = tested on: von Hippel-Lindau disease tumor suppressor/Epidermal growth factor receptor (Homo sapiens), P00533+P40337 [UNDEFINED MUTATION]; test: PROTAC activity at VHL/EGFR Del19 mutant in human HCC827 cells assessed as induction of EGFR degradation at 100 nM preincubated with MG-132 for 6 hrs followed by compound treatment for 48 hrs by Western blot analysis; type: cell-based
[23] = Toxicity in BALB/c mouse xenografted with human HCC827 cells assessed as change in body weight at 1.25 to 5 mg/kg,ip once daily for 28 days; type: organism-based; conditions: in vivo, 672 h, dose 1.25-5 mg/kg, time 28 day
HCC827 [24] = test: Antitumor activity against human HCC827 cells xenografted in BALB/c mouse assessed as increase in EGFR degradation in tumor at 1.25 to 5 mg/kg,ip once daily for 28 days by Western blot analysis; type: functional, organism-based; conditions: dose 1.25-5 mg/kg, time 28.0 day
NCI-H1975 [25] = test: Antiproliferative activity against human NCI-H1975 cells harboring EGFR L858R/T790M double mutant assessed as inhibition of cell growth incubated for 48 to 72 hrs by CCK-8 assay; type: functional, cell-based
[26] = Metabolic stability in dog liver microsomes assessed as half-life at 1 uM incubated upto 60 mins in presence of NADPH by LC-MS/MS analysis; type: ADME, Canis lupus familiaris, Microsome
[27] = Metabolic stability in dog liver microsomes assessed as elimination rate constant at 1 uM incubated upto 60 mins in presence of NADPH by LC-MS/MS analysis; type: ADME, Canis lupus familiaris, Microsome

CCN(CC)C/C=C/C(=O)Nc1cc2c(Nc3ccc(F)c(Cl)c3)ncnc2cc1OCc1cn(CCCCCCCC(=O)N[C@H](C(=O)N2C[C@H](O)C[C@H]2C(=O)N[C@H](C)c2ccc(-c3scnc3C)cc2)C(C)(C)C)nn1
inhibition in vivo at 2.5 mg/kg (HCC827 [1]): 67% | MRT inf [2]: 0.34 h | Activity [3]: inactive | half-life at 1 µM [4]: 1.95 h | Activity (H1975-TM): Active | Activity [5]: Non-Toxic | Emax [6]: 94% | AUC(0-t) at 24 h [7]: 2820 ng·h/mL | half-life [8]: 0.96 h | AUC(0-t) at 24 h [9]: 2350 ng·h/mL | inhibition in vivo at 10 mg/kg [10]: 34% | Activity [11]: Dose-Dependent Effect | Activity (NCI-H1975 [12]): >75% | microsomal CLint at 1 µM [13]: 17.8 µL/min/mg | IC50 (A549): > 20000 nM | Activity [14]: Dose-Dependent Effect | AUC(0-inf) [15]: 2360 ng·h/mL | Activity [16]: inactive | inhibition in vivo at 5 mg/kg [17]: 24% | Emax [18]: 100% | Cmax [19]: 7830 ng/mL | inhibition in vivo at 20 mg/kg (NCI-H1975 [20]): 85% | Activity [21]: Dose-Dependent Effect | Activity [22]: inactive | Activity [23]: Non-Toxic | Activity (HCC827 [24]): Active | IC50 (NCI-H1975 [25]): 490 nM | half-life at 1 µM [26]: 1.3 h | k el at 1 h, 1 µM [27]: 0.00015 s⁻¹
